In patent US5698552A, “Hetrazepinoid amides” (Boehringer Ingelheim KG, priority 1990, dated 1997):

Assays:
[1] = tested on: PAF-induced platelet aggregation; assay: Inhibition of PAF-induced platelet aggregation in vitro (Born and Cross method); format: cell-based, healthy male and female donors (human); settings: PAF 5 ×10^-8 M; human platelet-rich plasma (TRP); n=4; read-out: PAF-induced platelet aggregation (inhibition, IC50 = concentration at 50% aggregation inhibition)
Procedure: 200 ml samples of blood were taken from a non-obstructed vein, with the aid of a plastic syringe containing 3.8% sodium citrate solution, from healthy male and female donors aged from 18 to 35 years who had not taken any medicaments (aspirin or other non-steroid anti-inflammatories) for several days before the blood withdrawal. The ratio of sodium citrate solution:blood was 1:9. The citrated blood was centrifuged in plastic tubes at 150 ×g (=1,200 rpm) at room temperature for 20 min (Heraeus Christ bench centrifuge 124).
The platelet aggregation was measured in vitro by the method of Born and Cross (1963), an aggregation inducer (PAF) being added to the TRP, while stirring constantly. For the measurement, 0.8 ml TRP and 0.2 ml modified Tyrode's solution (see below) were introduced into 1 ml plastic cells, each of which contained a small metal pin (stirrer, 1,000 rpm). The test substance was added in a volume of 10 μl for 2 to 3 min before inducing the aggregation. Either DMSO and water or a dilute HCl solution was used as the solvent. The control batches contained the corresponding volume of these solvents. After recording the initial absorption (2-3 min), aggregation was induced. PAF (5 ×10^-8 M; Bachem Feinchemikalien) was introduced into the cell in a volume of 10 μl.
The modified Tyrode's solution had the following composition: 136.9 mM NaCl; 2.68 mM KCl; 0.5 mM MgCl2; 1.8 mM CaCl2; 0.42 mM NaH2 PO4; 5.55 mM glucose and 11.9 mM NaHCO3.
To evaluate substance effects, the maximum of the first aggregation wave was used. The maximum absorption induced by the aggregation inducer (=maximum aggregation=100%) was simultaneously run in a parallel batch (in the 2nd channel of the aggregometer) to each test batch and used as the 100% value. The aggregation value achieved under the action of the test substance was quoted as % of the control value (batch).
Concentration/effect curves with a random sample size of in each case n=4 were plotted with the aid of this method and IC50 values (concentration at 50% aggregation inhibition) were calculated.

PAF receptor = target: T1, PAF receptor (Homo sapiens, UniProt P25105); assay: 3H-PAF-receptor bonding on human thrombocytes (platelets); format: binding; settings: method as in European Patent Application 368 175
T1 construct: determined using human thrombocytes; endogenous in cells; host or cells: human thrombocytes (platelets)
T1 sequence (P25105 whole entry): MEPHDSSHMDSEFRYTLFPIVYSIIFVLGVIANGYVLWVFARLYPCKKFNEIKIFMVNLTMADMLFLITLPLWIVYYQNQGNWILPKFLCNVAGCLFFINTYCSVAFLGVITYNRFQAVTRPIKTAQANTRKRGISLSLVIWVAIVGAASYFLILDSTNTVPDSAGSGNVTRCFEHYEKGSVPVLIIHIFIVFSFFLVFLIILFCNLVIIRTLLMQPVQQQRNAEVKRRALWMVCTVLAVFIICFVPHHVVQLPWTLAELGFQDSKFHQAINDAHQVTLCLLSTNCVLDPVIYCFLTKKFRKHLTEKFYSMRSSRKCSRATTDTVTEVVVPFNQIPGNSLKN
Procedure: Then, at 20° C., 18.3 g (0.12 mol) of hydroxybenzotriazole (HOBT), 23.7 g (0.109 mol) of N-4-trifluoromethylbenzyl-N-n-propylamine and 25.6 g (0.125 mol) of dicyclohexyl-carbodiimide (DCCI) and a further 250 ml of dimethylformamide (DMF) were added. The mixture was left to react for 24 hours. It was then cooled to 5° C. and filtered. 500 ml of water were added to the filtrate and it was extracted with ethyl acetate. The combined organic phases were washed with water and saturated sodium hydrogen carbonate solution, dried with magnesium sulphate and filtered over kieselguhr/char-coal. After working up in the usual way, 50 g of colourless crystals of the title compound are obtained by crystallisation from ethanol/diisopropylether (1:1). […] (The method used is described for example in European Patent Application 368 175).

Row | SMILES | IC50 [1] | Ki (PAF receptor)
1 | CCCN(Cc1ccccc1)C(=O)[C@@H]1Cc2sc3c(c2C1)C(c1ccccc1Cl)=NCc1nnc(C)n1-3 [Example 2, S(-)-3-(Benzylpropylaminocarbonyl)-5-(2-chlorophenyl)-10-methyl-7H-cyclopenta[4,5]thieno[3,2-f][1,2,4]-triazolo-[4,3-a][1,4]diazepine] | 0.049 µM | 
2 | CCN(Cc1ccccc1)C(=O)[C@@H]1Cc2sc3c(c2C1)C(c1ccccc1Cl)=NCc1nnc(C)n1-3 [Example 6, S(-)-3-(Benzylethylaminocarbonyl)-5-(2-chlorophenyl)-10-methyl-7H-cyclopenta[4,5]thieno[3,2-f][1,2,4]triazolo-[4,3-a][1,4]diazepine] | 0.023 µM | 
3 | CCCCN(Cc1ccccc1)C(=O)[C@@H]1Cc2sc3c(c2C1)C(c1ccccc1Cl)=NCc1nnc(C)n1-3 [Example 7, S(-)-3-(Benzylbutylaminocarbonyl)-5-(2-chlorophenyl)-10-methyl-7H-cyclopenta[4,5]thieno-[3,2-f][1,2,4]triazolo-[4,3-a][1,4]diazepine] | 0.084 µM | 
4 | Cc1nnc2n1-c1sc3c(c1C(c1ccccc1Cl)=NC2)C[C@H](C(=O)N(Cc1ccccc1)Cc1ccccc1)C3 [Example 10, S(--)-3-(Dibenzylaminocarbonyl)-5-(2-chlorophenyl)-10-methyl-7H-cyclopenta[4,5]thieno-[3,2-f][1,2,4]-triazolo-[4,3-a][1,4]diazepine] | 0.037 µM | 
5 | CCCN(Cc1ccc(C(F)(F)F)cc1)C(=O)[C@@H]1Cc2sc3c(c2C1)C(c1ccccc1Cl)=NCc1nnc(C)n1-3 [Example 18] |  | 0.0018 µM
